For one data set, the system named is multiple myeloma. The arrangement: method as in PMID 22033675. Conditions: xenogeneic multiple myeloma model in mice; cited from earlier work.
In data set [1] the test system is human blood cell cancers that express SHIP1. The arrangement: method as in PMID 20200281, PMID 22033675. Conditions: cited from earlier work.
The subject of a further data set is OCRL. Also noted: method as in PMID 22033675. Conditions: cited from earlier work.
In the next data set the target is T1, SHIP2 (Homo sapiens, UniProt O15357).
T1 construct: purchased Echelon Biosciences
T1 sequence (O15357 1-1258): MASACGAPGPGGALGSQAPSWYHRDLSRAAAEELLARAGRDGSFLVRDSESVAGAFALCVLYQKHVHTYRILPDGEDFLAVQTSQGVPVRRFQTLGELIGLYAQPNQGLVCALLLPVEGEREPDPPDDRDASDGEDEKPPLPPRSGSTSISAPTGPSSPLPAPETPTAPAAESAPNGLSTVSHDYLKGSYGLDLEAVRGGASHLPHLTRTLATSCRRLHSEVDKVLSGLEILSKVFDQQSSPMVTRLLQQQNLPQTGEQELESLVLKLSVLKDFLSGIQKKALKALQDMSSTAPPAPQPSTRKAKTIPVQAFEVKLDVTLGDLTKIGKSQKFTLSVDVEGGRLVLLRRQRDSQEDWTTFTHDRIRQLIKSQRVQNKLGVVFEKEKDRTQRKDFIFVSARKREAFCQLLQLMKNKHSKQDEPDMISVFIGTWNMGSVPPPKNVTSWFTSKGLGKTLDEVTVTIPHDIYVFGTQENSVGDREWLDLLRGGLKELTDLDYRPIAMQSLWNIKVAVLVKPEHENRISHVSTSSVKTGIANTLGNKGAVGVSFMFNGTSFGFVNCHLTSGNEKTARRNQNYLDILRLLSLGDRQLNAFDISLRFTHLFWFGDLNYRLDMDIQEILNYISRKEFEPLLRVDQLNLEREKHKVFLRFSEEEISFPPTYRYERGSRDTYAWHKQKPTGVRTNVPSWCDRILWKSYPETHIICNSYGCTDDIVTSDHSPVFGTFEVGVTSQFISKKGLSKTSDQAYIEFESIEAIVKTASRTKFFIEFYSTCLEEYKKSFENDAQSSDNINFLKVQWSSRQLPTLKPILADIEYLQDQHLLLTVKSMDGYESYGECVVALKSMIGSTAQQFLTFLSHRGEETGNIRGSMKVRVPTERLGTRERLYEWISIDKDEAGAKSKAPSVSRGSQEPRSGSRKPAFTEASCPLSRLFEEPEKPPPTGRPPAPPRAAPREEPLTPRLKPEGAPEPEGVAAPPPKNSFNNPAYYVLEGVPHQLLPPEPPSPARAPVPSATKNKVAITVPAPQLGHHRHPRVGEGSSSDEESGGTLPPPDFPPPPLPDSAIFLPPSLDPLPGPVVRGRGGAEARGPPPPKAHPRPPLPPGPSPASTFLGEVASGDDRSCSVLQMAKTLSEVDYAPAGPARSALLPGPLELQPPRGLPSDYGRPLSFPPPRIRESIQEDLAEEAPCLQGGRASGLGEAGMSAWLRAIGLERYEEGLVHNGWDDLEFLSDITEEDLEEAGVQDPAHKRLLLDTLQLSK
As to the kind of experiment: Malachite green phosphatase release assay, SHIP2. Format: biochemical. The procedure: (§1) These compounds were then tested for their activity against the two SHIP paralogs, SHIP1 and SHIP2 in the colorimetric malachite green phosphatase assay. The malachite green assay detects the amount of free phosphate produced from enzymatic reactions with SHIP and an inositol phospholipid substrate.
(§2) 4.7. Malachite Green Phosphatase Release Assays
(§3) Malachite green assays to monitor phosphatase release (Echelon Biosciences) were performed with recombinant human truncated SHIP1 (tSHIP1) and SHIP2 (Echelon Biosciences). Serial dilutions of the compounds dissolved in DMSO were added to the recombinant enzymes diluted in reaction buffer Rx (50 mM Hepes pH 7.4, 150 mM NaCl, 1 mM MgCl2, 0.25 mM EDTA) in triplicate reaction wells in 96-well plates. After incubation for 2 min at room temperature, 2.5 µL of 1 mM phosphatidylinositol 3,4,5-trisphosphate diC8 (PI(3,4,5)P3-diC8, Echelon Biosciences) was added to each reaction to a final concentration of 100 µM in a final volume of 25 µL /well. Following a 20 min incubation at 37 °C, 100 µL of Malachite Green solution (Echelon Biosciences) was added to each well and the plates were incubated at room temperature in the dark for 15 min. Plates were then read at 620 nm on a plate reader (Synergy 2, BioTek, Santa Clara, CA, USA). In addition, 3α-Aminocholestane, a known SHIP1 inhibitor, and AS1949490, a known SHIP2 inhibitor, were used as positive controls.

Another data set has as its system multiple myeloma cells. The arrangement: method as in PMID 22033675. Conditions: followed by caspase cascade activation leading to extensive apoptosis; cited from earlier work.
A further data set concerns the target T2, tSHIP1 (Homo sapiens, UniProt Q92835).
T2 sequence (Q92835 399-715 limits assumed): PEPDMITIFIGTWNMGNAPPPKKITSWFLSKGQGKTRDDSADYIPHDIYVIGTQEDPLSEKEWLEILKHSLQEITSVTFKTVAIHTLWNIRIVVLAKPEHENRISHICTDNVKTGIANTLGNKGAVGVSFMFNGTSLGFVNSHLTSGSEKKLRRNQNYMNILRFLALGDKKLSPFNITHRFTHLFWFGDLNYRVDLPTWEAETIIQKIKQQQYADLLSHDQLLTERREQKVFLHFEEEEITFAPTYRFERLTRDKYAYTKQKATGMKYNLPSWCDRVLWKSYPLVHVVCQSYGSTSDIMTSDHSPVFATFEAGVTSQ
Nature of the data set: Fluorescence Polarization (FP) assay for the detection of PI(3,4)P2, SHIP1. Format: biochemical. The procedure:
as §1
4.8. Fluorescence Polarization (FP) Assays for the Detection of PI(3,4)P2
The FP Assay for the detection of PI(3,4)P2 (Echelon Biosciences) was performed using tSHIP1 [48] with serial dilutions of the tryptamines in DMSO according to the manufacturer’s recommendation as previously described. […] 40 µL of 4 µM PIP3 (PI(3,4,5)P3-diC8) in Rx buffer is added to each reaction and incubated at 37 °C for 20 min, followed by heat inactivation for 3 min at 95 °C. Reactions were spun down briefly and 10 µL of each reaction was added in 6 replicate wells to a black 384-well plate provided with the FP kit. 10 µL of 1X reconstituted Detector (a phosphoinositide binding protein) in PBS is then added to each well, followed by 5 µL of 1X freshly diluted Probe (in PBS, a fluorophore-labeled phosphoinositide) protected from light. Assay plates are gently tapped to mix, the plate is sealed and spun down briefly and the reaction is allowed to equilibrate for 60 min at room temperature protected from light.

For another data set, the system named is mice. Nature of the data set: Side effect observed in mice. Conditions: in vivo.
The test system of data set [2] is several cell lines, especially breast cancer cells. Also noted: method as in PMID 22033675, PMID 27716613. Conditions: cited from earlier work.
For data set [3], the system named is recombinant human truncated SHIP1 (tSHIP1). As to the kind of experiment: Malachite green phosphatase release assay, SHIP1. It counts as biochemical. Conditions: for Malachite (250 µM) % Inhib. SHIP1: 250 µM compound; for Malachite (500 µM) % Inhib. SHIP1: 500 µM compound; for activity against SHIP1 (in words): summary of Table 1. The procedure:
These compounds were then tested for their activity against the two SHIP paralogs, SHIP1 and SHIP2 in the colorimetric malachite green phosphatase assay. The malachite green assay detects the amount of free phosphate produced from enzymatic reactions with SHIP and an inositol phospholipid substrate. The Malachite assay is useful for ruling out compounds that are fluorescent or have aggregation issues and is inexpensive, so it was utilized as the primary screen even though it is not as sensitive as other assays.
as §2, §3

Data set [4] concerns leukemia cell lines (NB4, HSB2, K562 and 697-Pre-B), multiple myeloma cell line OPM-2, breast cancer cell lines MBA-MD-231 and MCF-7. As to the kind of experiment: MTT cell viability assay on cancer cell lines. As to conditions: Figure 3. It counts as cell-based. An excerpt: . The assay monitors the ability of NADPH-dependent cellular oxidoreductases to reduce the dye MTT (3-(4,5-dimethylthiazol-2-yl)-2,5-diphenyltetrazolium bromide), which when reduced produces a purple color that can be easily quantified. This assay is often used to determine cell viability. […] All of these cell lines express SHIP1 due to their hematopoietic origin, as SHIP1 is selectively expressed in blood and bone marrow cells. Cytotoxicity was also found on the breast cancer cell lines MBA-MD-231 and MCF-7, which is likely due to the inhibition of SHIP2. […]. 4.9. MTT Cell Viability Assay
Cells were treated in triplicate or more with increasing concentrations of the compound. Cell viability was determined with a Cell Counting Kit (Dojindo Molecular Technologies, Rockville, MD, USA) per the manufacturer’s instructions. The […] (OD) of compound-treated cells was divided by the OD of their vehicle control, and the viability was expressed as a percentage of untreated cells. Results are expressed as mean ± standard error of the mean (SEM) of three individual experiments. […]

This is an account of results in article PMC9738565, “N1-Benzyl Tryptamine Pan-SHIP1/2 Inhibitors: Synthesis and Preliminary Biological Evaluation as Anti-Tumor Agents” (Molecules, 2022).

With `CC(C)CCC[C@@H](C)[C@H]1CC[C@H]2[C@@H]3CC[C@H]4C[C@H](N)CC[C@]4(C)[C@H]3CC[C@]12C` [Compound 3AC, 3α-aminocholestane], the “protection from multiple myeloma growth” value in the data set with multiple myeloma is on record as “effective in protecting the majority of mice”. For the same compound, the “Akt activation and apoptosis” value in data set [1] is “reduces Akt activation and promotes apoptosis”.

By IC50 is commonly meant the concentration at which inhibition is half-maximal. Lower therefore signals higher potency. As to `CSc1ccc2c(c1)c(CCN)c(C)n2Cc1ccccc1Cl.Cl` [Compound 1, 2-(1-(2-Chlorobenzyl)-2-methyl-5-(methylthio)-1H-indol-3-yl)ethanaminium chloride], the “effect on OCRL” value in the data set with OCRL is recorded as “no effect”. Further, the inhibition at 250 µM on SHIP2 (250 µM compound, read-out: Malachite (250 µM) % Inhib. SHIP2) was found to be 7%. In addition, at SHIP2 (500 µM compound, read-out: Malachite (500 µM) % Inhib. SHIP2), the inhibition at 500 µM is 59%. Moreover, at SHIP2 (summary of Table 1), the “activity against SHIP2 (in words)” value was “significant activity”. In addition, the “cell cycle effect in multiple myeloma cells” value with multiple myeloma cells is on record as “G2/M cell cycle arrest”. The compound also registered an IC50 against tSHIP1 of 5 µM. In addition, the “psychotropic effect in mice” value in the data set with mice is listed as “induced a psychotropic effect”. The “antitumor effects on cell lines” value in data set [2] was “significant antitumor effects”. For the same compound, in data set [3], the “Malachite (250 µM) % Inhib. SHIP1” value amounted to 7%, the “Malachite (500 µM) % Inhib. SHIP1” value is 51% and the “activity against SHIP1 (in words)” value is reported as “significant activity”.

`CSc1ccc2c(c1)c(CCN)c(C)n2Cc1ccc(Cl)cc1Cl.Cl` [Compound 7d, 2-(1-(2,4-Dichlorobenzyl)-2-methyl-5-(methylthio)-1H-indol-3-yl)ethanaminium chloride]: the “cytotoxicity on cancer cell lines (in words)” value in data set [4] is reported as “greatest cytotoxicity”. In data set [3], the “Malachite (250 µM) % Inhib. SHIP1” value was determined as 32%, the “Malachite (500 µM) % Inhib. SHIP1” value came out at 52% and the “activity against SHIP1 (in words)” value is listed as “significant activity”.
